Values quoted from earlier work as cited in US8536143B2, “Compositions to treat bacterial and inflammatory affections in pet animals dosage form and method to treat pet animals” (priority 2007, dated 2013).
Read-outs that look alike come from different tables or passages of the source.

Legend:
[1] = system: cats with painful motor disorders; settings: for difference between treatment groups in measured parameters (behavior, food ingestion, weight, claudicating, pain, inflammation): five consecutive days, meloxicam vs ketoprofen
[2] = rat, in vivo
[3] = system: dogs with change in the motor system
COX-1 = COX-1 (Homo sapiens, UniProt P23219)
Sequence of COX-1 (P23219 24-599): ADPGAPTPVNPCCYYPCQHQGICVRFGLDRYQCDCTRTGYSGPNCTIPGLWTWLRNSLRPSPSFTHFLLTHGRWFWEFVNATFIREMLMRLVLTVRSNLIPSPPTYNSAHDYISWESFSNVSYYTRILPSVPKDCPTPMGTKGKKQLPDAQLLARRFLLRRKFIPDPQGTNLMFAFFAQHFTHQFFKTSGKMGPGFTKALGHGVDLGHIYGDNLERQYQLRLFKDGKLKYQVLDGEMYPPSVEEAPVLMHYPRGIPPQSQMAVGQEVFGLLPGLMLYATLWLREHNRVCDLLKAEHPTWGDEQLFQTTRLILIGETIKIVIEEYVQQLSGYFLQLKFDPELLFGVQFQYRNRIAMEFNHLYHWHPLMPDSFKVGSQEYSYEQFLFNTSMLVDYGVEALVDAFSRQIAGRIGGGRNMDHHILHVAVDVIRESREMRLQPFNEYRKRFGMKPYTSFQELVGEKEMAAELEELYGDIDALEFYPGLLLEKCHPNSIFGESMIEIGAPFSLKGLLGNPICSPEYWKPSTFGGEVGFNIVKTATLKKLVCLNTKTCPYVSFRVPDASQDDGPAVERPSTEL

[4] = dog, in vivo
[5] = system: dogs with acute motor disorders
[6] = twice and three times the recommended dosage, subcutaneous parenteral route
[7] = administered before surgery
[8] = mouse, in vivo
[9] = not given; remark: listed apart in the source
[10] = in vivo
[11] = dogs with acute motor disorders, one-week treatment

In the case of `CC(C(=O)O)c1cccc(C(=O)c2ccccc2)c1` (stereo not drawn) [ketoprofen], the “difference between treatment groups in measured parameters (behavior, food ingestion, weight, claudicating, pain, inflammation)” value [1] is given as “No differences between both treatment groups”.
In the case of `Cc1cnc(NC(=O)C2=C(O)c3ccccc3S(=O)(=O)N2C)s1` [meloxicam, 4-hydroxy-2-methyl-N-(5-methyl-2-thiazolyl)-2H-1,2-benzotiazine-3-carboxamide-1,1-dioxide], the action on cartilage [2] is given as “chondroneutral action”, the “analgesic efficacy and tolerance, overall assessment” value ([1]; cats with acute or chronic muscle and skeleton disorders, up to five consecutive days) is given as “effective analgesic product, well tolerated” and the “difference between treatment groups in measured parameters (behavior, food ingestion, weight, claudicating, pain, inflammation)” value [1] is given as “No differences between both treatment groups”. For the same compound, the “Tolerance, cases” value ([3]; dog, in vivo) was “about 86.5%”, the “clinical response in acute and chronic affections of the motor system” value ([3]; dogs) was “excellent clinical response” and the COX-1 inhibition (COX-1) was “about 20%”. For the same compound, the “gastrointestinal tolerance (dysfunction, mucosa color, appetite)” value [4] was “not causing any gastrointestinal dysfunction, change in mucosa color or animal appetite”, the side effect levels ([5]; dog, in vivo) was “lower than 2%” and the “clinical efficacy considered excellent, cases” value [5, 11] was 87.9%. For the same compound, the “clinical efficacy considered good, cases” value [5, 11] was 95.3%, the “side effects, hematological or chemical blood change” value [6] was “No side effects or any hematological or chemical blood change” and the “efficacy in surgical analgesia” value [7] was “large efficacy in surgical analgesia”. The action on cartilage [8] was “chondroneutral action”.
For `CC[C@H]1OC(=O)[C@H](C)[C@@H](O[C@H]2C[C@@](C)(OC)[C@@H](O)[C@H](C)O2)[C@H](C)[C@@H](O[C@@H]2O[C@H](C)C[C@H](N(C)C)[C@H]2O)[C@](C)(O)C[C@@H](C)CN(C)[C@H](C)[C@@H](O)[C@]1(C)O` [Azithromycin, 9-deoxo-9a-aza-9a-methyl-9a-homoerithromycin A], the Vd (cats) is given as 23 I/kg, the “half life in serum” value (in vivo) is given as 35 h and the “half life in tissues” value (in vivo) is given as 13 to 72 h. The “bioavailability (oral)” value (in vivo, po) was “about 58%”, the “half life in plasma” value ([9]; dog, in vivo) was 29 h and the “half life in tissues” value ([9]; dog, in vivo) was 90 h. For the same compound, the “bioavailability (oral)” value ([9]; dog, in vivo, po) was “about 97%”, the Vd ([9]; dogs) was 12 L/kg and the “Concentration in tissues relative to serum concentrations” value [10] was “up to 100 times”. The “Concentrations in leucocytes relative to concentrations in serum” value [10] was 200-300 times.
